Test results taken from paper PMC11271627, “Molecular dynamics-guided optimization of BGM0504 enhances dual-target agonism for combating diabetes and obesity” (Scientific Reports, 2024).

Tests used:
in vivo = assay: in vivo; design: species or system cynomolgus monkeys; conditions: cynomolgus monkey
Description: In this trial, 24 cynomolgus monkeys (12 of each sex) were provided by Hainan Jingang Biotechnology Co., Ltd. Each animal was identified using a unique code on the chest and cage box, and its health status was confirmed by the veterinary team of WuXi AppTec Suzhou Drug Development Co., Ltd. before use. Temperature and humidity were monitored in the animal room, with data recorded daily to ensure that the relative humidity was maintained at 40%–70% and the temperature stayed between 18–26°C. The ventilation was set to 10–20 exchanges per hour, and a 12-hour alternating light-dark cycle was adopted. Regular growth feed was provided daily, and the animals had constant access to water. Additionally, the test animals were provided with fruit daily to meet their nutritional needs. The 24 cynomolgus monkeys were randomly divided into four groups, with three monkeys of each sex per group. Animals in group 1 received a single intravenous bolus of 0.1 mg/kg BGM0504, while groups 2, 3, and 4 received a single subcutaneous injection of 0.2, 1, and 5 mg/kg BGM0504 in 20 mM citrate buffer solution (pH=7.0±0.2), respectively. Blood samples for pharmacokinetic (PK) analysis were collected at specific time points (0.5, 1, 4, 6, 8, 12, 24, 48, 72, 96, 120, 168, 240, and 312 hours) before and after dosing. At the same time, blood glucose levels were measured at 0.5, 4, 24, 48, and 72 hours after dosing. The collected blood samples were transferred to labeled commercial tubes containing K2-EDTA (0.85–1.15 mg), gently inverted several times to ensure mixing, and immediately placed on wet ice. Within 60 minutes of blood collection, the samples were centrifuged for 10 minutes at 3200×g at 2°–8°C. Plasma was divided into two aliquots (one for analysis and one for later use), transferred to labeled polypropylene tubes, immediately snap-frozen vertically in dry ice, and stored in an ultra-low temperature freezer at -60°C or lower until transported to the Drug Evaluation Department of WuXi AppTec Shanghai Drug Development Co., Ltd. for LC-MS/MS analysis.

Human GLP-1R = target: T1, Human GLP-1R (Homo sapiens, UniProt P43220); assay: cAMP accumulation assay, GLP-1R; type: cell-based
T1 construct: expressed in transfected cells; host or cells: HEK293 cells
Description: These cells were then resuspended in 5 mL of the assay buffer, and their concentration was determined using a Vi-Cell Counter. […] Samples were subsequently added to the assay plate along with ECHO555. […] A volume of 10 µL of the cell suspension was added to the assay plate, with a density of 1000 cells/well for GLP-1R testing and 2000 cells/well for GIPR testing. The assay plate was then incubated in a 23°C incubator for 30 minutes. A starting concentration of 800 nM was used to prepare the cAMP standard curve, followed by a 4-fold 10-point serial dilution. These serially diluted cAMP standards were added to the assay plate at a volume of 10 µL/well. Subsequently, 10 µL of the cAMP detection solution was added to the assay plate, and the plate was incubated at room temperature for 1 hour, shielded from direct light. […] For data analysis, each data point’s cAMP level (nM) was calculated using the established cAMP standard curve. The percentage activity for each data point was determined using the formula: % Activity = (cAMP level of testing sample - average cAMP level of low control) / ([…] cAMP level of high control - average cAMP level of […] control) × 100%. Additionally, the ‘log(agonist) vs. response – variable slope’ model in GraphPad Prism 5.0 was used to fit the dose-response curve of each sample and calculate the EC50 value.

T1 sequence (P43220 24-463): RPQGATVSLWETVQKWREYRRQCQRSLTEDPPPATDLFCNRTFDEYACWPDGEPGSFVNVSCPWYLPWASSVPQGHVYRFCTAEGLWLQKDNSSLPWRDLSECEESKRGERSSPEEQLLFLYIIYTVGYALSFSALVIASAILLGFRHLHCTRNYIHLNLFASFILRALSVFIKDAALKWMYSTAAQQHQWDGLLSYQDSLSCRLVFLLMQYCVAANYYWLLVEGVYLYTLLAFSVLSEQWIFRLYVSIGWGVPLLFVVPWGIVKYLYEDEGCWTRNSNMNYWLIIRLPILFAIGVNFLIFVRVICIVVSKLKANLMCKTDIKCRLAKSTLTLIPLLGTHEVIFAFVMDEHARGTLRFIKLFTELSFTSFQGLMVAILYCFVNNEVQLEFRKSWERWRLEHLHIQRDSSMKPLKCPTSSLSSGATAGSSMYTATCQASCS

## CC[C@H](C)[C@H](NC(=O)[C@H](CC(C)C)NC(=O)[C@H](Cc1c[nH]c2ccccc12)NC(=O)[C@H](CCC(N)=O)NC(=O)[C@@H](NC(=O)[C@H](Cc1ccccc1)NC(=O)[C@H](C)NC(=O)[C@H](CCCCN)NC(=O)[C@H](CCC(N)=O)NC(=O)[C@H](C)NC(=O)[C@@H](NC(=O)[C@H](CCCCN)NC(=O)[C@H](CC(=O)O)NC(=O)[C@H](CC(C)C)NC(=O)C(C)(C)NC(=O)[C@@H](NC(=O)[C@H](CO)NC(=O)[C@H](Cc1ccc(O)cc1)NC(=O)[C@H](CC(=O)O)NC(=O)[C@H](CO)NC(=O)[C@@H](NC(=O)[C@H](Cc1ccccc1)NC(=O)[C@@H](NC(=O)CNC(=O)[C@H](CCC(=O)O)NC(=O)C(C)(C)NC(=O)[C@@H](N)Cc1ccc(O)cc1)[C@@H](C)O)[C@@H](C)O)[C@@H](C)CC)[C@@H](C)CC)C(C)C)C(=O)N[C@@H](C)C(=O)NCC(=O)NCC(=O)N1CCC[C@H]1C(=O)N[C@@H](CO)C(=O)N[C@@H](CO)C(=O)NCC(=O)N[C@@H](C)C(=O)N1CCC[C@H]1C(=O)N1CCC[C@H]1C(=O)N1CCC[C@H]1C(=O)N[C@@H](CO)C(=O)N[C@@H](CCCCNC(=O)COCCOCCOCCNC(=O)COCCOCCOCCNC(=O)CC[C@H](NC(=O)CCCCCCCCCCCCCCCCCCC(=O)O)C(=O)O)C(N)=O [BGM0504]
In vivo; both sexes, iv, 0.1 mg/kg
  AUC(0-inf): 81.1 µg·h/mL
  AUC(0-t): 80.4 µg·h/mL
  C0: 2860 ± 261 ng/mL
  Vd: 0.0608 ± 0.005 L/kg
  clearance: 1.24 ± 0.132 mL/h/kg
  half-life: 37.9 ± 2.5 h
In vivo; both sexes, sc, 0.2 mg/kg
  AUC(0-inf): 113 µg·h/mL
  AUC(0-t): 113 µg·h/mL
  Cmax: 1440 ± 109 ng/mL
  Tmax: 16 ± 6.2 h
  bioavailability: 69.7%
  half-life: 38.7 ± 1.8 h
In vivo; both sexes, sc, 1 mg/kg
  AUC(0-inf): 491 µg·h/mL
  AUC(0-t): 488 µg·h/mL
  Cmax: 5970 ± 1090 ng/mL
  Tmax: 22 ± 14 h
  bioavailability: 60.5%
  half-life: 41.7 ± 2.9 h
In vivo; both sexes, sc, 5 mg/kg
  AUC(0-inf): 2740 µg·h/mL
  AUC(0-t): 2720 µg·h/mL
  Cmax: 33500 ng/mL
  Tmax: 20 ± 6.2 h
  bioavailability: 67.6%
  half-life: 43.4 ± 5.9 h
In vivo
  Tmax: 16 to 22 h
In vivo; iv, 0.1 mg/kg
  AUC0-24: 34.6 µg·h/mL
  AUC0–last (as headed in Table 1): 34,600 ± 2470 ng h/mL
  AUC0–∞ (as headed in Table 1): 80,400 ± 7880 ng h/mL
In vivo; sc, 0.2 mg/kg
  AUC0-24: 26.1 µg·h/mL
  AUC0–last (as headed in Table 1): 26,100 ± 1740 ng h/mL
  AUC0–∞ (as headed in Table 1): 113,000 ± 7940 ng h/mL
In vivo; sc, 1 mg/kg
  AUC0-24: 109 µg·h/mL
  AUC0–last (as headed in Table 1): 109,000 ± 21,900 ng h/mL
  AUC0–∞ (as headed in Table 1): 488,000 ± 51,200 ng h/mL
In vivo; sc, 5 mg/kg
  AUC0-24: 603 µg·h/mL
  AUC0–last (as headed in Table 1): 603,000 ± 94,200 ng h/mL
  AUC0–∞ (as headed in Table 1): 2,720,000 ± 246,000 ng h/mL
Human GLP-1R; HEK293 cells with high expression of GLP-1 receptor, 1000 cells/well, 30 min 23°C, geometric mean ± SEM, n = 3
  EC50: 0.031 nM
Human GLP-1R; HEK293 cells, relative to 10 nM GLP-1(7–37) high control, arithmetic mean ± SEM
  Emax: 92.7 ± 7.6%
